In patent US20090192312A1, “Brain Function-Improving Agent, and Functional Food Containing the Improving Agent” (MITSUBISHI GAS CHEMICAL COMPANY, INC., priority 2006, published 2009):

Tested on: Male Wistar rats
Assay: Morris water maze test of learning and memory abilities
Format: in vivo
Conditions: feed containing 0.02% PQQ·2Na, 21 days of breeding; one trial daily for 20 days; versus PQQ·2Na-free treatment groups; 9 animals per group
Source text: Male Wistar rats (9 weeks old) were bred using a feed containing 0.02% pyrroloquinoline quinone disodium salt (PQQ·2Na) or 0.3% coenzyme Q10 (CoQ10) alone or both in combination or a feed free from these compounds. From the age of 12 week old after 21 days of breeding, 9 animals per group were subjected to a test of learning and memory abilities using a Morris water maze. Specifically, the bottom of a circular pool (150 cm in diameter, 45 cm in depth) was divided into four quadrants with white lines. A circular platform was placed at the center of one of the quadrants so that it was hidden under the water. Each rat was allowed to swim from different positions of the other three quadrants having no platform, and the time until it reached the platform was measured. This test was tried once daily for a total of 20 days. The learning rate was calculated by the following equation: Learning rate (%)=100−(mean time until rat reaches the platform at the Xth trial/mean time until rat reaches the platform at the first trial)×100

## O=C(O)c1cc(C(=O)O)c2c(n1)C(=O)C(=O)c1cc(C(=O)O)[nH]c1-2.[Na].[Na] [PQQ·2Na, pyrroloquinoline quinone disodium salt]
  increasing rate of the learning rate: statistically significantly higher
